In patent US20260015358A1, “BICYCLIC DERIVATIVES, COMPOSITIONS AND USES THEREOF” (Danatlas Pharmaceuticals Co., Ltd., priority 2023, published 2026):

Tests used:
[1] = target: T1, WRN [UniPro: Q14191 (WRN_HUMAN), N500-C946] (Homo sapiens (Human), UniProt Q14191); assay: WRN ATPase assay (ADP-Glo); assay type: biochemical; settings: WRN enzymatic activity assay
[2] = target: T1, WRN [UniPro: Q14191 (WRN_HUMAN), N500-C946]; assay: WRN unwinding assay (FORKF DNA, fluorescence); assay type: biochemical; settings: Table 14

T1 sequence (Q14191 500-946): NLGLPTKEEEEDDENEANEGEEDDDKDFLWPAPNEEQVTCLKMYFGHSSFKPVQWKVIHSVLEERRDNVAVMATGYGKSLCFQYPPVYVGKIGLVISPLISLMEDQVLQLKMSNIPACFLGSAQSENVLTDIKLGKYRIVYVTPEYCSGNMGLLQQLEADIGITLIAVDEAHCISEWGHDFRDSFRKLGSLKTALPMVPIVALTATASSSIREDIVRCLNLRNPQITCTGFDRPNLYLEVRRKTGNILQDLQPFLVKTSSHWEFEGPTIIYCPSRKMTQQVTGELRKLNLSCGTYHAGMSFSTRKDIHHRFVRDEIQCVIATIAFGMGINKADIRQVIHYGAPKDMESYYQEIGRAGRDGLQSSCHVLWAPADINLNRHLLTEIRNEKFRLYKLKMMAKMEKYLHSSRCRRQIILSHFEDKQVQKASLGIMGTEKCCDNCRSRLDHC

| IC50 [1] [nM] | IC50 [2] [nM] | Compound |
| --- | --- | --- |
| < 100 | < 100 | CCc1c(N2CCN(C(=O)CNC(=O)N(C)Cc3ccccc3)CC2)c(=O)n2nc(C3=CCOCC3)nc2n1CC(=O)Nc1ccc(C(F)(F)F)cc1Cl [Example 189, 2-(6-(4-((Benzyl(methyl)carbamoyl)glycyl)piperazin-1-yl)-2-(3,6-dihydro-2H-pyran-4-yl)-5-ethyl-7-oxo-[1,2,4]triazolo[1,5-a]pyrimidin-4(7H)-yl)-N-(2-chloro-4-(trifluoromethyl)phenyl)acetamide] |
| < 100 | < 100 | CCc1c(N2CCN(C(=O)CNC(=O)NCC3CC3)CC2)c(=O)n2nc(C3=CCOCC3)nc2n1CC(=O)Nc1ccc(C(F)(F)F)cc1Cl [Example 190, N-(2-Chloro-4-(trifluoromethyl)phenyl)-2-(6-(4-(((cyclopropylmethyl)carbamoyl)glycyl)piperazin-1-yl)-2-(3,6-dihydro-2H-pyran-4-yl)-5-ethyl-7-oxo-[1,2,4]triazolo[1,5-a]pyrimidin-4(7H)-yl)acetamide] |
| < 100 | < 100 | CCc1c(N2CCN(C(=O)CNC(=O)NCc3ccccc3F)CC2)c(=O)n2nc(C3=CCOCC3)nc2n1CC(=O)Nc1ccc(C(F)(F)F)cc1Cl [Example 191, N-(2-Chloro-4-(trifluoromethyl)phenyl)-2-(2-(3,6-dihydro-2H-pyran-4-yl)-5-ethyl-6-(4-(((2-fluorobenzyl)carbamoyl)glycyl)piperazin-1-yl)-7-oxo-[1,2,4]triazolo[1,5-a]pyrimidin-4(7H)-yl)acetamide] |
| < 100 | < 100 | CCc1c(N2CCN(C(=O)CNC(=O)N3Cc4ccncc4C3)CC2)c(=O)n2nc(C3=CCOCC3)nc2n1CC(=O)Nc1ccc(C(F)(F)F)cc1Cl [Example 192, N-(2-(4-(4-(2-((2-Chloro-4-(trifluoromethyl)phenyl)amino)-2-oxoethyl)-2-(3,6-dihydro-2H-pyran-4-yl)-5-ethyl-7-oxo-4,7-dihydro-[1,2,4]triazolo[1,5-a]pyrimidin-6-yl)piperazin-1-yl)-2-oxoethyl)-1,3-dihydro-2H-pyrrolo[3,4-c]pyridine-2-carboxamide] |
| < 100 | < 100 | CCc1c(N2CCN(C(=O)CNC(=O)N3CCc4cccc(F)c43)CC2)c(=O)n2nc(C3=CCOCC3)nc2n1CC(=O)Nc1ccc(C(F)(F)F)cc1Cl [Example 193, N-(2-(4-(4-(2-((2-Chloro-4-(trifluoromethyl)phenyl)amino)-2-oxoethyl)-2-(3,6-dihydro-2H-pyran-4-yl)-5-ethyl-7-oxo-4,7-dihydro-[1,2,4]triazolo[1,5-a]pyrimidin-6-yl)piperazin-1-yl)-2-oxoethyl)-7-fluoroindoline-1-carboxamide] |
| < 100 | < 100 | CCc1c(N2CCN(S(=O)(=O)NC(=O)c3ccccc3)CC2)c(=O)n2nc(C3=CCOCC3)nc2n1CC(=O)Nc1ccc(C(F)(F)F)cc1Cl [Example 194, N-((4-(4-(2-((2-Chloro-4-(trifluoromethyl)phenyl)amino)-2-oxoethyl)-2-(3,6-dihydro-2H-pyran-4-yl)-5-ethyl-7-oxo-4,7-dihydro-[1,2,4]triazolo[1,5-a]pyrimidin-6-yl)piperazin-1-yl)sulfonyl)benzamide] |
| < 100 | < 100 | CCc1c(N2CCN(C(=O)c3ncc4ncsc4c3O)CC2)c(=O)n2nc(C3=CCOCC3)nc2n1CC(=O)Nc1ccc(C(F)(F)F)cc1Cl [Example 195, N-(2-Chloro-4-(trifluoromethyl)phenyl)-2-(2-(3,6-dihydro-2H-pyran-4-yl)-5-ethyl-6-(4-(7-hydroxythiazolo[4,5-c]pyridine-6-carbonyl)piperazin-1-yl)-7-oxo-[1,2,4]triazolo[1,5-a]pyrimidin-4(7H)-yl)acetamide] |
| < 100 | < 100 | CCc1c(N2CCN(C(=O)c3ncc4nc(Cl)sc4c3O)CC2)c(=O)n2nc(C3=CCOCC3)nc2n1CC(=O)Nc1ccc(C(F)(F)F)cc1Cl [Example 196, N-(2-Chloro-4-(trifluoromethyl)phenyl)-2-(6-(4-(2-chloro-7-hydroxythiazolo[4,5-c]pyridine-6-carbonyl)piperazin-1-yl)-2-(3,6-dihydro-2H-pyran-4-yl)-5-ethyl-7-oxo-[1,2,4]triazolo[1,5-a]pyrimidin-4(7H)-yl)acetamide] |
| < 100 | < 100 | CCc1c(N2CCN(C(=O)c3cc4sccc4[nH]c3=O)CC2)c(=O)n2nc(C3=CCOCC3)nc2n1CC(=O)Nc1ccc(C(F)(F)F)cc1Cl [Example 197, N-(2-Chloro-4-(trifluoromethyl)phenyl)-2-(2-(3,6-dihydro-2H-pyran-4-yl)-5-ethyl-7-oxo-6-(4-(5-oxo-4,5-dihydrothieno[3,2-b]pyridine-6-carbonyl)piperazin-1-yl)-[1,2,4]triazolo[1,5-a]pyrimidin-4(7H)-yl)acetamide] |
| < 100 | < 100 | CCc1c(N2CCN(C(=O)c3c(O)nn4c(Cl)cccc34)CC2)c(=O)n2nc(C3=CCOCC3)nc2n1CC(=O)Nc1ccc(C(F)(F)F)cc1Cl [Example 198, 2-(6-(4-(7-Chloro-2-hydroxypyrazolo[1,5-a]pyridine-3-carbonyl)piperazin-1-yl)-2-(3,6-dihydro-2H-pyran-4-yl)-5-ethyl-7-oxo-[1,2,4]triazolo[1,5-a]pyrimidin-4(7H)-yl)-N-(2-chloro-4-(trifluoromethyl)phenyl)acetamide] |
| < 100 | < 100 | CCc1c(N2CCN(C(=O)c3ncc4nc(Cl)sc4c3O)CC2)c(=O)n2nc(C3=CCOCC3)nc2n1CC(=O)Nc1ccc(C(F)(F)F)cc1F [Example 199, 2-(6-(4-(2-Chloro-7-hydroxythiazolo[4,5-c]pyridine-6-carbonyl)piperazin-1-yl)-2-(3,6-dihydro-2H-pyran-4-yl)-5-ethyl-7-oxo-[1,2,4]triazolo[1,5-a]pyrimidin-4(7H)-yl)-N-(2-fluoro-4-(trifluoromethyl)phenyl)acetamide] |
| < 100 | < 100 | CCc1c(N2CCN(C(=O)c3ccn4nccc4c3O)CC2)c(=O)n2nc(C3=CCOCC3)nc2n1CC(=O)Nc1ccc(C(F)(F)F)cc1Cl [Example 200, N-(2-Chloro-4-(trifluoromethyl)phenyl)-2-(2-(3,6-dihydro-2H-pyran-4-yl)-5-ethyl-6-(4-(4-hydroxypyrazolo[1,5-a]pyridine-5-carbonyl)piperazin-1-yl)-7-oxo-[1,2,4]triazolo[1,5-a]pyrimidin-4(7H)-yl)acetamide] |
| < 100 | < 100 | CCc1c(N2CCN(C(=O)c3cnn4cncc4c3O)CC2)c(=O)n2nc(C3=CCOCC3)nc2n1CC(=O)Nc1ccc(C(F)(F)F)cc1Cl [Example 201, N-(2-Chloro-4-(trifluoromethyl)phenyl)-2-(2-(3,6-dihydro-2H-pyran-4-yl)-5-ethyl-6-(4-(4-hydroxyimidazo[1,5-b]pyridazine-3-carbonyl)piperazin-1-yl)-7-oxo-[1,2,4]triazolo[1,5-a]pyrimidin-4(7H)-yl)acetamide] |
| 100 to 1000 | 100 to 1000 | CCc1c(N2CCN(C(=O)c3ncn4cccc4c3O)CC2)c(=O)n2nc(C3=CCOCC3)nc2n1CC(=O)Nc1ccc(C(F)(F)F)cc1Cl [Example 202, N-(2-Chloro-4-(trifluoromethyl)phenyl)-2-(2-(3,6-dihydro-2H-pyran-4-yl)-5-ethyl-6-(4-(4-hydroxypyrrolo[1,2-c]pyrimidine-3-carbonyl)piperazin-1-yl)-7-oxo-[1,2,4]triazolo[1,5-a]pyrimidin-4(7H)-yl)acetamide] |
| < 100 | < 100 | CCc1c(N2CCN(C(=O)c3ncc4ccn(C)c4c3O)CC2)c(=O)n2nc(C3=CCOCC3)nc2n1CC(=O)Nc1ccc(C(F)(F)F)cc1Cl [Example 203, N-(2-Chloro-4-(trifluoromethyl)phenyl)-2-(2-(3,6-dihydro-2H-pyran-4-yl)-5-ethyl-6-(4-(7-hydroxy-1-methyl-1H-pyrrolo[3,2-c]pyridine-6-carbonyl)piperazin-1-yl)-7-oxo-[1,2,4]triazolo[1,5-a]pyrimidin-4(7H)-yl)acetamide] |
| < 100 | < 100 | CCc1c(N2CCN(C(=O)c3ncc4ccccc4c3O)CC2)c(=O)n2nc(C3=CCOCC3)nc2n1CC(=O)Nc1ccc(C(F)(F)F)cc1Cl [Example 204, N-(2-Chloro-4-(trifluoromethyl)phenyl)-2-(2-(3,6-dihydro-2H-pyran-4-yl)-5-ethyl-6-(4-(4-hydroxyisoquinoline-3-carbonyl)piperazin-1-yl)-7-oxo-[1,2,4]triazolo[1,5-a]pyrimidin-4(7H)-yl)acetamide] |
| < 100 | < 100 | CCc1c(N2CCN(C(=O)c3ncc4c(ccn4C)c3O)CC2)c(=O)n2nc(C3=CCOCC3)nc2n1CC(=O)Nc1ccc(C(F)(F)F)cc1Cl [Example 205, N-(2-Chloro-4-(trifluoromethyl)phenyl)-2-(2-(3,6-dihydro-2H-pyran-4-yl)-5-ethyl-6-(4-(4-hydroxy-1-methyl-1H-pyrrolo[2,3-c]pyridine-5-carbonyl)piperazin-1-yl)-7-oxo-[1,2,4]triazolo[1,5-a]pyrimidin-4(7H)-yl)acetamide] |
| < 100 | < 100 | CCc1c(N2CCN(C(=O)c3cnn4ccnc4c3O)CC2)c(=O)n2nc(C3=CCOCC3)nc2n1CC(=O)Nc1ccc(C(F)(F)F)cc1Cl [Example 206, N-(2-Chloro-4-(trifluoromethyl)phenyl)-2-(2-(3,6-dihydro-2H-pyran-4-yl)-5-ethyl-6-(4-(8-hydroxyimidazo[1,2-b]pyridazine-7-carbonyl)piperazin-1-yl)-7-oxo-[1,2,4]triazolo[1,5-a]pyrimidin-4(7H)-yl)acetamide] |
| 100 to 1000 | 100 to 1000 | CCc1c(N2CCN(C(=O)CNc3ncccn3)CC2)c(=O)n2nc(C3=CCOCC3)nc2n1CC(=O)Nc1ccc(C(F)(F)F)cc1Cl [Example 207, N-(2-Chloro-4-(trifluoromethyl)phenyl)-2-(2-(3,6-dihydro-2H-pyran-4-yl)-5-ethyl-7-oxo-6-(4-(pyrimidin-2-ylglycyl)piperazin-1-yl)-[1,2,4]triazolo[1,5-a]pyrimidin-4(7H)-yl)acetamide] |
